Assay results: US12643910B2, “Substituted pyrazolo[3,4-b]pyridines as ectonucleotide pyrophosphatase/phosphodiesterase 1 (ENPP1) modulators” (SANFORD BURNHAM PREBYS MEDICAL DISCOVERY INSTITUTE, priority 2019, dated 2026)

Legend:
[1] = target: T1, ENPP3 (Homo sapiens, UniProt O14638); test: ENPP3 Km ATP assay; format: biochemical; details: ATP at Km
T1 sequence (O14638 1-875): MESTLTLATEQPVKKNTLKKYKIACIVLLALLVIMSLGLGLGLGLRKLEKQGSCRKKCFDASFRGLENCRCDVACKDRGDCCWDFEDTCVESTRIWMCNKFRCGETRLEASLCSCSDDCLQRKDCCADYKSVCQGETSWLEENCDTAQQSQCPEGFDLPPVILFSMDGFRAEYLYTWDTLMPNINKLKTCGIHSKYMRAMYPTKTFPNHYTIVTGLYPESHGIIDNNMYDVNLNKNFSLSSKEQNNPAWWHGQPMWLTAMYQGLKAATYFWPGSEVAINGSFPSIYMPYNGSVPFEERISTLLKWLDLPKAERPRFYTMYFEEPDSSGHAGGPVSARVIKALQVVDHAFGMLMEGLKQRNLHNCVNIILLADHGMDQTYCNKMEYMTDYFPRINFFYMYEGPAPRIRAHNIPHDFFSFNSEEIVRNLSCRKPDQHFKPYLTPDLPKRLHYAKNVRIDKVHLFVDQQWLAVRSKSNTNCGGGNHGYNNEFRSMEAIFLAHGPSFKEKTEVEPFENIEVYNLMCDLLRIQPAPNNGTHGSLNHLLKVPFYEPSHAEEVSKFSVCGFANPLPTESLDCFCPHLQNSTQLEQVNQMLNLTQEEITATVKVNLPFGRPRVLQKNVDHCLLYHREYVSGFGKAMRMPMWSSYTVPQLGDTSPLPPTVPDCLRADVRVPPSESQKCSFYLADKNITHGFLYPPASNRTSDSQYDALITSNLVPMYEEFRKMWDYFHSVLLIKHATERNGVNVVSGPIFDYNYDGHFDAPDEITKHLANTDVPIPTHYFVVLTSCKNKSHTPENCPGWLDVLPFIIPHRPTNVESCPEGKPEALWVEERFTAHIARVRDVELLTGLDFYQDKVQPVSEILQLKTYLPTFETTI

[2] = target: T2, human ENPP1 (Homo sapiens, UniProt P22413); test: ENPP1 assay with ATP substrate (Transcreener AMP2/GMP2 TR-FRET); format: biochemical; details: 1 hour at room temperature
T2 construct: made in house
T2 sequence (P22413 1-925): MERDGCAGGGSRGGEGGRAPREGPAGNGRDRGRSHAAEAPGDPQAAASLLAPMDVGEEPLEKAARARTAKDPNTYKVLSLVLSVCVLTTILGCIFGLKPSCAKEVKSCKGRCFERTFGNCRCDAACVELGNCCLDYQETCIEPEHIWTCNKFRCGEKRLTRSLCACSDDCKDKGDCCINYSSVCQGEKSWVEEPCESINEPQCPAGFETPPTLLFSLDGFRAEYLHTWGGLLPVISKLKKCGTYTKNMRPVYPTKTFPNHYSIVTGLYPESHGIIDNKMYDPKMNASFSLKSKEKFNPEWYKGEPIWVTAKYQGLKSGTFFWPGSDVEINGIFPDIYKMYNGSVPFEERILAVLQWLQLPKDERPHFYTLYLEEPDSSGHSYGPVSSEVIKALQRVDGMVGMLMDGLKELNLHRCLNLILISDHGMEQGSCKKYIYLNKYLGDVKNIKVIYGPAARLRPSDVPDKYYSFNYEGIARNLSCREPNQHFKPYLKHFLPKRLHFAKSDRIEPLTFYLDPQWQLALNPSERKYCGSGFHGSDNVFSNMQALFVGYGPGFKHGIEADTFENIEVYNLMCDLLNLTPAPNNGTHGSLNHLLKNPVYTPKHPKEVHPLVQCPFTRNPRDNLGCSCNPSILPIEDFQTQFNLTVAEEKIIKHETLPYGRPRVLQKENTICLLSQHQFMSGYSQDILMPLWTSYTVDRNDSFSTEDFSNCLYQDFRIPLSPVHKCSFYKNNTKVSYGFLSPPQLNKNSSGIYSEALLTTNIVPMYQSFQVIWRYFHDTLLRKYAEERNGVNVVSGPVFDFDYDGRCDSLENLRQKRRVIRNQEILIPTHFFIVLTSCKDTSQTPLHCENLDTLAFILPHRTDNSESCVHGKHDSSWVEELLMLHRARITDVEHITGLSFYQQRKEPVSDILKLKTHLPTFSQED
From the text: Example B1: ENPP1 Assay with ATP Substrate
Ectonucleotide pyrophosphatase/phosphodiesterase 1 (ENPP1) hydrolyzes ATP, breaking it down into 5′-AMP and pyrophosphate. The 5′-AMP formed from the reaction is detected by Transcreener® AMP2/GMP2 TR-FRET Assay (Bellbrook), containing AMP-tracer (HiLyte 647) and anti-AMP Terbium (Tb) donor. 5′-AMP generated in the reaction competes with AMP-tracer for binding with Anti-AMP Tb donor, and decreases TR-FRET signal.
Different concentrations of ENPP1 inhibitors are added to dry assay plate, followed by 2 μl 300 nM ATP. The reaction is initiated with the addition of 2 μl 8.5 μM human ENPP1 (generated by SBP Protein group). The assay reaction mixture contains a buffer of 50 mM Tris, pH 7.5, 1 mM TCEP, 2 mM MgCl2, 0.005% Tween 20, and 1% DMSO. The reaction is stopped after 1 hour at room temperature by adding 2 μL of 2 nM AMP-tracer and 2 μl of 2 nM Anti-AMP Tb donor in the 50 mM Tris, pH 7.5, buffer containing 20 mM EDTA and 0.1% Prionex. After 2 hour additional incubation at room temperature, the generated signal is measured using BMG Lab PHERASTAR instrument. 100% activity control samples (containing enzyme, substrate, buffer: MAX) and no enzyme control samples (containing substrate and buffer: MIN) are utilized to calculate percent inhibition (%) for each compound concentration well (COMPOUND) as follows.
The IC50 values are determined by fitting the inhibition curves with 2-parameter variable slope model in Graphpad Prism software using percent inhibition vs compound concentration data: […]

**Q.** `Cc1csc2c(N3CCC(Nc4ccncc4)CC3)ncnc12` [Example 3.24, N-(1-(7-Methylthieno[3,2-d]pyrimidin-4-yl)piperidin-4-yl)pyridin-4-amine] was tested. Which IC50 [1] did it give?
**A.** The IC50 was over 20 µM.

**Q.** And the IC50 [2]?
**A.** Its IC50 is 1 to 20 µM.

**Q.** With `CNc1nc(NCc2ccc(S(N)(=O)=O)cc2)c2c(-c3ccccc3)csc2n1` [Example 1.42, 4-(((2-(Methylamino)-5-phenylthieno[2,3-d]pyrimidin-4-yl)amino)methyl)-benzenesulfonamide] as the compound, how does the IC50 [1] read?
**A.** The IC50 was under 0.1 µM.

**Q.** And the IC50 [2]?
**A.** Its IC50 is under 0.1 µM.

**Q.** Which IC50 [1] does the source give for `Cn1ncc2c(NCc3ccc(S(N)(=O)=O)cc3)cc(NCCO)nc21` [Example 2.81, 4-(((6-((2-Hydroxyethyl)amino)-1-methyl-1H-pyrazolo[3,4-b]pyridin-4-yl)amino)methyl)-benzenesulfonamide] here?
**A.** Its IC50 is 1 to 20 µM.

**Q.** What about the IC50 [2] of the same compound?
**A.** The IC50 was 1 to 20 µM.

**Q.** With `Cn1ncc2c(NCc3ccc(S(N)(=O)=O)cc3)cc(Cl)nc21` [Example 2.73, 4-(((6-Chloro-1-methyl-1H-pyrazolo[3,4-b]pyridin-4-yl)amino)methyl)benzenesulfonamide] as the compound, how does the IC50 [1] read?
**A.** The IC50 was under 0.1 µM.

**Q.** What about the IC50 [2] of the same compound?
**A.** The IC50 was under 0.1 µM.

**Q.** `Cc1csc2c(N3CCC(NC(=O)CCc4ccnc(Br)c4)CC3)ncnc12` [Example 3.9] was tested. Which IC50 [1] did it give?
**A.** The IC50 was over 20 µM.

**Q.** And the IC50 [2]?
**A.** Its IC50 is 1 to 20 µM.

**Q.** What does the source list for `NS(=O)(=O)c1ccc(CNc2nc(-c3ccccc3)nc3scc(-c4ccccc4)c23)cc1` [Example 1.24, 4-(((2,5-Diphenylthieno[2,3-d]pyrimidin-4-yl)amino)methyl)benzenesulfonamide]?
**A.** IC50 [1]: > 20 µM; IC50 [2]: > 20 µM

**Q.** Which IC50 [1] does the source give for `Cc1ccc(CNc2nc(-c3ccccn3)nc3scc(-c4ccccc4)c23)cc1` [Example 1.7, (4-Methyl-benzyl)-(5-phenyl-2-pyridin-2-yl-thieno[2,3-d]pyrimidin-4-yl)-amine] here?
**A.** Its IC50 is over 20 µM.

**Q.** What about the IC50 [2] of the same compound?
**A.** The IC50 was over 20 µM.

**Q.** What does the source list for `Cn1ncc2c(NCc3ccc(S(N)(=O)=O)cc3)cnnc21` [Example 2.55, 4-(((1-Methyl-1H-pyrazolo[3,4-c]pyridazin-4-yl)amino)methyl)benzenesulfonamide]?
**A.** IC50 [1]: 1 to 20 µM; IC50 [2]: 0.1 to 1 µM

**Q.** With `CN(C)c1nc(NCc2ccc(S(N)(=O)=O)cc2)c2cnn(C)c2n1` [Example 2.28, 4-(((6-(Dimethylamino)-1-methyl-1H-pyrazolo[3,4-d]pyrimidin-4-yl)amino)methyl)-benzenesulfonamide] as the compound, how does the IC50 [1] read?
**A.** The IC50 was 0.1 to 1 µM.

**Q.** And the IC50 [2]?
**A.** Its IC50 is 1 to 20 µM.

**Q.** With `NS(=O)(=O)c1ccc(CNc2nc(-c3ccccn3)nc3scc(-c4ccccc4)c23)s1` [Example 1.31, 5-(((5-Phenyl-2-(pyridin-2-yl)thieno[2,3-d]pyrimidin-4-yl)amino)methyl)thiophene-2-sulfonamide] as the compound, how does the IC50 [1] read?
**A.** Its IC50 is 0.1 to 1 µM.

**Q.** What about the IC50 [2] of the same compound?
**A.** The IC50 was under 0.1 µM.

**Q.** What does the source list for `Cc1csc2c(N3CCC(NC(=O)CCc4cccc(Cl)c4)CC3)ncnc12` [Example 3.18, 3-(3-Chlorophenyl)-N-(1-(7-methylthieno[3,2-d]pyrimidin-4-Y)piperidin-4-yl)propanamide]?
**A.** IC50 [1]: > 20 µM; IC50 [2]: > 20 µM

**Q.** Which results are given for `NS(=O)(=O)c1ccc(CNc2nc(-c3ccncc3)nc3scc(-c4ccccc4)c23)s1` [Example 1.29, 5-(((5-Phenyl-2-(pyridin-4-yl)thieno[2,3-d]pyrimidin-4-yl)amino)methyl)thiophene-2-sulfonamide]?
**A.** IC50 [1]: > 20 µM; IC50 [2]: > 20 µM

**Q.** What does the source list for `Cc1csc2c(N3CCC(NCc4ccncc4)CC3)ncnc12` [Example 3.2, 1-(7-Methylthieno[3,2-d]pyrimidin-4-yl)-N-(pyridin-4-ylmethyl)piperidin-4-amine]?
**A.** IC50 [1]: > 20 µM; IC50 [2]: 1 to 20 µM

**Q.** What does the source list for `Cc1nc(N2CCC(NCCCc3ccncc3)CC2)c2cnn(C)c2n1` [Example 2.51, 1-(1,6-Dimethyl-1H-pyrazolo[3,4-d]pyrimidin-4-yl)-N-(3-(pyridin-4-yl)propyl)piperidin-4-amine]?
**A.** IC50 [1]: > 20 µM; IC50 [2]: > 20 µM

**Q.** With `Cc1csc2c(N3CCC(NCCCc4ccccc4F)CC3)ncnc12` [Example 3.33, N-(3-(2-Fluorophenyl)propyl)-1-(7-methylthieno[3,2-d]pyrimidin-4-yl)piperidin-4-amine] as the compound, how does the IC50 [1] read?
**A.** Its IC50 is over 20 µM.

**Q.** And the IC50 [2]?
**A.** Its IC50 is 0.1 to 1 µM.

**Q.** What does the source list for `Cc1nc(N2CCC(NCCCc3ccc(F)cc3)CC2)c2cnn(C)c2n1` [Example 3.55, 1-(1,6-Dimethyl-1H-pyrazolo[3,4-d]pyrimidin-4-yl)-N-(3-(4-fluorophenyl)propyl)piperidin-4-amine]?
**A.** IC50 [1]: > 20 µM; IC50 [2]: > 20 µM

**Q.** `Cc1csc2c(N3CCC(NCCCc4ccc(C#N)cc4)CC3)ncnc12` [Example 3.6, 4-(3-((1-(7-Methylthieno[3,2-d]pyrimidin-4-yl)piperidin-4-yl)amino)propyl)benzonitrile] was tested. Which IC50 [1] did it give?
**A.** Its IC50 is over 20 µM.

**Q.** And the IC50 [2]?
**A.** Its IC50 is 0.1 to 1 µM.

**Q.** How did the IC50 [1] turn out when `Cn1ncc2c(NCc3ccc(S(N)(=O)=O)cn3)ncnc21` [Example 2.53, 6-(((1-Methyl-1H-pyrazolo[3,4-d]pyrimidin-4-yl)amino)methyl)pyridine-3-sulfonamide] was run?
**A.** Its IC50 is over 20 µM.

**Q.** And the IC50 [2]?
**A.** The IC50 was 0.1 to 1 µM.

**Q.** With `Cc1nc(NCc2ccc(S(N)(=O)=O)cc2)c2c3c(sc2n1)CCCC3` [Example 1.64, 4-((2-Methyl-5,6,7,8-tetrahydro[1]benzothieno[2,3-d]pyrimidin-4-yl)aminomethyl)-benzenesulfonamide] as the compound, how does the IC50 [1] read?
**A.** Its IC50 is 1 to 20 µM.

**Q.** What about the IC50 [2] of the same compound?
**A.** Its IC50 is over 20 µM.

**Q.** What does the source list for `Cc1csc2c(N3CCC(NC(=O)/C=C/c4ccncc4Cl)CC3)ncnc12` [Example 3.11, (E)-3-(3-Chloropyridin-4-yl)-N-(1-(7-methylthieno[3,2-d]pyrimidin-4-yl)piperidin-4-yl)acrylamide]?
**A.** IC50 [1]: > 20 µM; IC50 [2]: 1 to 20 µM

**Q.** What does the source list for `Cc1csc2c(N3CCC(NCCCc4ccnc(F)c4)CC3)ncnc12` [Example 3.37, N-(3-(2-Fluoropyridin-4-yl)propyl)-1-(7-methylthieno[3,2-d]pyrimidin-4-yl)piperidin-4-amine]?
**A.** IC50 [1]: > 20 µM; IC50 [2]: 0.1 to 1 µM

**Q.** What does the source list for `NS(=O)(=O)c1ccc(CNc2nc(NCc3ccccc3)nc3scc(-c4ccccc4)c23)cc1` [Example 1.41, 4-(((2-(Benzylamino)-5-phenylthieno[2,3-d]pyrimidin-4-yl)amino)methyl)-benzenesulfonamide]?
**A.** IC50 [1]: 0.1 to 1 µM; IC50 [2]: < 0.1 µM

**Q.** For `COc1nc(N2CCC(NCCCc3ccncc3)CC2)c2scc(C)c2n1` [Example 3.66, 1-(2-Methoxy-7-methylthieno[3,2-d]pyrimidin-4-yl)-N-(3-(pyridin-4-yl)propyl)piperidin-4-amine], which IC50 [2] is on record?
**A.** Its IC50 is 1 to 20 µM.
